Converted amounts (≈) assume the structure as drawn.
Legend:
Format in all cases: cell-based
Micrococcus luteus = assay: MIC by serial dilution (agar), Micrococcus luteus; details: strain 9341, Iso-Sensitest agar, 37° C., about 20 hours
Protocol: (§1) The minimum inhibitory concentrations (MICs) of the compounds according to the invention were determined by serial dilution methods on Iso-Sensitest agar (Oxoid). For each test substance a series of agar plates was, prepared, which plates contained decreasing concentrations of the active compound, with twofold dilution in each case. The agar plates were inoculated with a Multipoint inoculator (Denley). Inoculation was carried out using overnight cultures of the pathogens, which had been diluted beforehand so that each inoculation point contained about 10^4 colony-forming particles. The inoculated agar plates were incubated at 37° C., and the growth of the microorganisms was read off after about 20 hours. The MIC (μg/ml) indicates the lowest concentration of active compound at which no growth-could be perceived with the naked eye. In the table below, the MICs of some of the compounds according to the invention are listed.

Staphylococcus aureus = assay: MIC by serial dilution (agar), Staphylococcus aureus; details: 37° C., about 20 hours
Protocol: as §1

Enterococcus faecalis = assay: MIC by serial dilution (agar), Enterococcus faecalis; details: 20 h, 37° C., about 20 hours
Protocol: as §1

[1] = 20 h, strain 133, Iso-Sensitest agar
[2] = 20 h, strain ICB 25701, Iso-Sensitest agar
[3] = 20 h, strain ICB 25768, Iso-Sensitest agar
[4] = ATCC29123, 20 h, strain ATCC 29123, Iso-Sensitest agar
[5] = strain 27 101, Iso-Sensitest agar
[6] = strain 9790, Iso-Sensitest agar

Structure (SMILES): CNC1C=CCC2CN(c3c(F)cc4c(=O)c(C(=O)O)c5scc6n5c4c3N(C)C6)CC21 (stereo not drawn) [Example 3, 7-Fluoro-8-(2-methylamino-8-azabicyclo[4.3.0]non-3-en-8-yl)-5-oxo-9,1-[(N-methylimino)-methano]-5H-thiazolo-[3,2-a]quinoline-4-carboxylic acid]
- MIC (Micrococcus luteus): 0.125 mg/L (≈ 0.275 µM)
- MIC (Staphylococcus aureus; [1]): ≤ 0.015 mg/L
- MIC (Staphylococcus aureus; [2]): 0.125 mg/L (≈ 0.275 µM)
- MIC (Staphylococcus aureus; [3]): 0.25 mg/L (≈ 0.55 µM)
- MIC (Staphylococcus aureus; [4]): ≤ 0.015 mg/L
- MIC (Enterococcus faecalis; [5]): 0.125 mg/L (≈ 0.275 µM)
- MIC (Enterococcus faecalis; [6]): 0.125 mg/L (≈ 0.275 µM)

Structure (SMILES): CC1C=CC(N)C2CN(c3c(F)cc4c(=O)c(C(=O)O)c5scc6n5c4c3N(C)C6)CC12 (stereo not drawn) [Example 5, 8-(2-Amino-5-methyl-8-azabicyclo[4.3.0]non-3-en-8-yl)-7-fluoro-5-oxo-9,1-[(N-methylimino)methano]-5H-thiazolo-[3,2-a]quinoline-4-carboxylic acid]
- MIC (Micrococcus luteus): 0.062 mg/L (≈ 0.136 µM)
- MIC (Staphylococcus aureus; [1]): ≤ 0.015 mg/L
- MIC (Staphylococcus aureus; [2]): 0.125 mg/L (≈ 0.275 µM)
- MIC (Staphylococcus aureus; [3]): 0.5 mg/L (≈ 1.1 µM)
- MIC (Staphylococcus aureus; [4]): ≤ 0.015 mg/L
- MIC (Enterococcus faecalis; [5]): 0.062 mg/L (≈ 0.136 µM)
- MIC (Enterococcus faecalis; [6]): 0.062 mg/L (≈ 0.136 µM)

Structure (SMILES): CNCC1C=CCC2CN(c3c(F)cc4c(=O)c(C(=O)O)c5scc6n5c4c3N(C)C6)CC12 (stereo not drawn) [Example 7, 7-Fluoro-8-(2-methylamonomethyl-8-azabicyclo[4.3.0]non-3-en-8-yl)-5-oxo-9,1-[(N-methylimino)-methano]-5H-thiazolo-[3,2-a]quinoline-4-carboxylic acid]
- MIC (Micrococcus luteus): 0.25 mg/L (≈ 0.534 µM)
- MIC (Staphylococcus aureus; [1]): ≤ 0.015 mg/L
- MIC (Staphylococcus aureus; [2]): 0.25 mg/L (≈ 0.534 µM)
- MIC (Staphylococcus aureus; [3]): 1 mg/L (≈ 2.13 µM)
- MIC (Staphylococcus aureus; [4]): ≤ 0.015 mg/L
- MIC (Enterococcus faecalis; [5]): 0.126 mg/L (≈ 0.269 µM)
- MIC (Enterococcus faecalis; [6]): 0.125 mg/L (≈ 0.267 µM)
